Where “and” joins values, the source holds several entries; their conditions need not be identical. Identical values can stand only once. Inconclusive results and toxic doses are left out.
Test system: CD2F1 mice, L1210 leukemia ip, survival T/C
Assay: NCI In Vivo Anticancer Drug Screen. Data for tumor model L1210 Leukemia (intraperitoneal) in CD2F1 (CDF1) mice
Conditions: endpoint: mean survival time, higher = longer survival
How it was run: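 Activity against a transplanted murine tumor was judged by comparing the compound group with a vehicle group. The outcome in the treated animals was divided by that in the controls.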

[1] = dose: 100.0 mg/kg/injection, schedule: Q04DX003 (ip), vehicle: saline with Tween-80
[2] = dose: 200.0 mg/kg/injection, schedule: Q04DX003 (ip), vehicle: saline with Tween-80
[3] = dose: 400.0 mg/kg/injection, schedule: Q04DX003 (ip), vehicle: saline with Tween-80

CN(Cc1ccccc1)Cc1ccccc1
T/C (dose: 100.0 mg/kg/injection, schedule: Q04DX002 (ip), vehicle: saline): 100 % of control
T/C (dose: 200.0 mg/kg/injection, schedule: Q04DX002 (ip), vehicle: saline): 94 % of control

CCOC(=O)C(C)C(C)(O)c1ccccc1 (stereo not given)
T/C [1]: 97 % of control
T/C [2]: 97 % of control
T/C [3]: 98 % of control

Cc1cc(-c2ccc(N=Nc3c(N)ccc4cc(S(=O)(=O)O)ccc34)c(C)c2)ccc1N=Nc1c(N)ccc2cc(S(=O)(=O)O)ccc12
T/C (dose: 50.0 mg/kg/injection, schedule: Q01DX009 (ip), vehicle: saline): 101 % of control
T/C (dose: 100.0 mg/kg/injection, schedule: Q01DX009 (ip), vehicle: saline): 101 % of control

COC(=O)c1ccc(OC)c(I)c1
T/C (dose: 100.0 mg/kg/injection, schedule: Q04DX002 (ip), vehicle: saline with Tween-80): 98 % of control
T/C (dose: 200.0 mg/kg/injection, schedule: Q04DX002 (ip), vehicle: saline with Tween-80): 123 % of control
T/C (dose: 400.0 mg/kg/injection, schedule: Q04DX002 (ip), vehicle: saline with Tween-80): 98 % of control

O=C1CN(Cl)C(=O)CN1Cl
T/C (dose: 37.5 mg/kg/injection, schedule: Q04DX002 (ip), vehicle: saline with Tween-80): 98 % of control
T/C (dose: 75.0 mg/kg/injection, schedule: Q04DX002 (ip), vehicle: saline with Tween-80): 98 % of control
T/C (dose: 150.0 mg/kg/injection, schedule: Q04DX002 (ip), vehicle: saline with Tween-80): 102 % of control

O=C(O)c1cccc(COc2ccc([N+](=O)[O-])cc2Cl)c1
T/C (dose: 100.0 mg/kg/injection, schedule: Q01DX009 (ip), vehicle: saline with Tween-80): 101 % of control
T/C [1]: 91 % of control
T/C (dose: 200.0 mg/kg/injection, schedule: Q01DX009 (ip), vehicle: saline with Tween-80): 93 % of control
T/C [2]: 86 % of control
T/C [3]: 97 % of control

CCCn1cnc2c(=S)nc[nH]c21
T/C (dose: 150.0 mg/kg/injection, schedule: Q01DX Z (ip), vehicle: carboxymethylcellulose (CMC)): 119 % of control
T/C (dose: 150.0 mg/kg/injection, schedule: Q04DX003 (ip), vehicle: saline with Tween-80): 150 % of control
T/C (dose: 200.0 mg/kg/injection, schedule: Q01DX Z (ip), vehicle: carboxymethylcellulose (CMC)): 95 % of control
T/C (dose: 300.0 mg/kg/injection, schedule: Q04DX003 (ip), vehicle: saline with Tween-80): 161 % of control
T/C (dose: 600.0 mg/kg/injection, schedule: Q04DX003 (ip), vehicle: saline with Tween-80): 111 % of control

O=C(O)c1cccc2[nH]c(=O)oc(=O)c12
T/C [1]: 103 % of control
T/C [2]: 95 % of control
T/C [3]: 93 % of control

CC(CN)OCc1ccccc1 (stereo not given)
T/C (dose: 25.0 mg/kg/injection, schedule: Q04DX003 (ip), vehicle: saline): 98 % of control
T/C (dose: 50.0 mg/kg/injection, schedule: Q04DX003 (ip), vehicle: saline): 101 % of control
T/C (dose: 100.0 mg/kg/injection, schedule: Q04DX003 (ip), vehicle: saline): 101 % of control

O=C(O)c1nnc(C(=O)O)nn1
T/C (dose: 12.5 mg/kg/injection, schedule: Q01DX009 (ip), vehicle: water): 100 % of control
T/C (dose: 25.0 mg/kg/injection, schedule: Q01DX009 (ip), vehicle: water): 100 % of control
T/C (dose: 50.0 mg/kg/injection, schedule: Q01DX009 (ip), vehicle: water): 95 % of control
T/C (dose: 100.0 mg/kg/injection, schedule: Q01DX009 (ip), vehicle: water): 94 % of control

Clc1cccc(-c2nc3ccccc3c3ccccc23)c1
T/C [1]: 93 % of control
T/C [3]: 98 % of control

CC(C)(O)CCNc1ncnc2c1ncn2C1OC(CO)C(O)C1O (stereo not given)
T/C (dose: 12.5 mg/kg/injection, schedule: Q01DX005 (ip), vehicle: water): 101 % of control
T/C (dose: 25.0 mg/kg/injection, schedule: Q01DX005 (ip), vehicle: water): 95 % of control and 103 % of control
T/C (dose: 50.0 mg/kg/injection, schedule: Q01DX005 (ip), vehicle: water): 124 % of control and 103 % of control
T/C (dose: 100.0 mg/kg/injection, schedule: Q01DX005 (ip), vehicle: water): 108 % of control

CCCCCCCCCC1=NC(C)(C)CN1c1ccccc1
T/C (dose: 5.0 mg/kg/injection, schedule: Q01DX009 (ip), vehicle: saline with Tween-80): 98 % of control
T/C (dose: 10.0 mg/kg/injection, schedule: Q01DX009 (ip), vehicle: saline with Tween-80): 102 % of control
T/C (dose: 20.0 mg/kg/injection, schedule: Q01DX009 (ip), vehicle: saline with Tween-80): 106 % of control

NC(=S)N/N=C\c1cccs1
T/C [1]: 97 % of control
T/C [2]: 100 % of control
T/C [3]: 96 % of control
